{
  "source": "patent US12285434B2",
  "about": "“Therapeutic, preventive, or improvement agent for inflammatory disease and allergic disease” (The University of Tokyo, priority 2018, dated 2025)",
  "key": {"[1]": {"system": "histamine-induced vascular permeability in mouse ears", "assay": "Modified Miles assay: histamine-induced vascular hyperpermeability (Evans blue extravasation)", "type": "in vivo, mouse (C57BL/6)", "settings": "15 minutes, before 400 μg histamine", "experimental": "Fifteen (15) minutes after the intracutaneous injection, a vehicle (80% acetone) or histamine (400 μg, manufactured by Molecular Probes) was percutaneously administered to the ventral surface of the ears. To evaluate vascular permeability, Evans blue (50 mg/kg, manufactured by Sigma) was injected intravenously 5 minutes after the administration of histamine. The mice were then euthanized by cervical dislocation 30 minutes after the injection of Evans blue. The ears were dissected, dried at 55° C., and weighed. Extravasated Evans blue present in the ears was extracted in formamide (manufactured by Molecular Probes), and quantified spectrophotometrically (manufactured by PerkinElmer Japan Co., Ltd.) at a wavelength of 610 nm."}, "[2]": {"system": "DSS-induced colitis model mice", "assay": "DSS-induced colitis: colitis severity (body weight, fecal score, colon length)", "type": "in vivo, mouse (C57BL/6)", "settings": "1 mg/kg/day intraperitoneally on Days 9, 11 and 13", "source_text": "(§1) C57BL/6 strain mice (male, 8 to 12 weeks old) were fed with water containing 2% dextran sodium sulfate (manufactured by MP Bio, hereinafter sometimes referred to as “DSS”) for 4 days to prepare colitis model mice (hereinafter, sometimes referred to as “colitis group” in Examples 7 to 10). The mice taken with DSS for 4 days were fed with normal water from Day 5. The DSS intake start date was defined as Day 1 of the test, and the day before the DSS intake start date was defined as Day 0 of the test. In addition, a group in which C57BL/6 strain mice (male, 8 to 12 weeks old) were fed with normal water was defined as a “healthy group” (the same applies to Examples 8 to 10).\nIn order to evaluate colitis severity, the fecal condition was evaluated and the body weight was measured daily for the colitis model mice and healthy group prepared in the above item (1). The fecal condition was evaluated based on the following five-grade fecal scores. Specifically, the fecal scores were 0: normal; 1: soft but still formed; 2: very soft; 3: diarrhea; and 4: bloody feces. In addition, the colon length was measured as an index of the colitis severity.\n(§2) To investigate the role of 5,6-DiHETE in the healing phase, the colitis model mice prepared in Example 7(1) were intraperitoneally injected with 5,6-DiHETE (manufactured by Cayman Chemical) (50 μg/kg/day) or HC-067047 (manufactured by Cayman Chemical) (1 mg/kg/day) on Days 9, 11 and 13 of the test (hereinafter, sometimes referred to as “5,6-DiHETE-administered group” and “HC-067047-administered group,” respectively, in Examples 9 and 10). HC-067047 is known to inhibit an increase of calcium ion concentration in endothelial cells.\nThe colitis severity was determined according to the index and criteria described in Example 7(2)."}, "[3]": {"system": "DSS-induced colitis model mice", "assay": "DSS-induced colitis: histologic score and colon edema (wet/dry weight ratio)", "type": "in vivo, mouse (C57BL/6)", "settings": "Day 14; 1 mg/kg/day intraperitoneally on Days 9, 11 and 13", "source_text": "as §1, §2\nDistal colon sections on Day 14 of the test in the healthy group, colitis group, 5,6-DiHETE-administered group and HC-067047-administered group were fixed in 4% paraformaldehyde for 24 hours, embedded in paraffin and cut into 2 μm-thick sections. Hematoxylin staining and eosin staining of these sections were performed according to a conventional method. The histologic score was then decided according to the description of Kruschewski M. et al., Digestive Diseases and Sciences, 46: 2336-2343 (2001) to evaluate the colitis severity.\nThe wet/dry weight ratio was used as an index of colon edema (Rachmilewitz D. et al., Gastroenterology, 97: 326-337(1989)). Specifically, the distal colon was collected, and the wet weight was measured. The distal colon was then dried at 60 C for 24 hours, and, thereafter, the dry weight was measured."}, "anaphylaxis model mice": {"system": "anaphylaxis model mice", "assay": "Histamine-induced anaphylaxis: blood pressure and body temperature", "type": "in vivo, mouse (C57BL/6)", "settings": "200 mg/kg intravenously 15 minutes before histamine 50 mg/kg", "experimental": "Histamine (50 mg/kg) lysed in a physiological saline solution was intravenously administered to C57BL/6 strain mice (male, 8 to 12 weeks old) to prepare anaphylaxis model mice (hereinafter, sometimes referred to as “anaphylaxis group”). […] L-NAME is an NO synthesis inhibitor. As indices of anaphylactic symptoms, a body temperature decrease and a blood pressure decrease were observed."}, "HUVECs": {"system": "HUVECs", "assay": "Endothelial barrier function: transendothelial electrical resistance (TER)", "type": "cell-based, human", "experimental": "(§3) In Examples 4 to 6, human umbilical vein endothelial cells (hereinafter, sometimes referred to as “HUVECs”, manufactured by Lonza) were cultured in EGM-2 (manufactured by Lonza K.K.). These cells (passages 4 to 9) were used for experiments after 4-hour starvation in EBM-2 (manufactured by Lonza K.K.) containing 2% FBS.\nThe in vitro endothelial barrier function was evaluated by measuring the transendothelial electrical resistance (hereinafter, sometimes referred to as “TER”) of the HUVECs prepared in the above item (1) over time. Specifically, the transendothelial electrical resistance was measured using an xCELLigence Real-Time Cell Analyzer DP system (manufactured by Roche). The system monitors changes in TER across an interdigitated microelectrode at the bottom of tissue culture E-plates (manufactured by Roche). The HUVECs (8,000 cells) were plated on the E-plates and incubated until confluent. Then, the following operation (a) or (b) was performed.\n(a) Each reagent was added to plates on which the HUVECs were cultured, so as to give a vehicle, 1 U/mL thrombin, 1 μM forskolin, or 0.1 μM or 0.3 μM 5,6-DiHETE (FIGS. 4A and 4B).\n(b) A vehicle or […] was added to plates on which the HUVECs were cultured, so as to attain 10 μM. […] Thirty (30) minutes after the addition, 10 μM histamine was added to each plate 30 minutes after the addition (FIGS. 4C and 4D).\nIn the above operations (a) and (b), the TER was measured every 60 seconds. For normalization, the cell index value at each time point is shown as a ratio relative to the initial value. The maximum normalized cell index after stimulation was quantified and represented as maximal response. Note that it is known that the disruption of the endothelial barrier function lowers the TER, but that the enhancement of the endothelial barrier function increases the TER."}, "NO production in HUVECs": {"system": "NO production in HUVECs", "assay": "Histamine-induced NO production (nitrite and nitrate)", "type": "cell-based, human", "settings": "pretreatment 10 μM, 15 minutes; histamine 10 μM", "experimental": "as §3\nThe HUVECs were washed three times with HEPES and incubated in HEPES supplemented with 1 mM L-arginine and 10 μM tetrahydrobiopterin. After equilibration for 30 minutes, the medium was exchanged, and the cells were incubated for additional 30 minutes. […] The conditioned media before and after the stimulation (100 μL each) were collected and centrifuged in each amount of 300 g for 3 minutes. The supernatants were collected, and used to measure nitrite and nitrate, as stable metabolites of NO, by an ENO-20 NOx analyzer (manufactured by Eicom Corporation). The degrees of increases of nitrite and nitrate levels after the stimulation were normalized with cellular protein contents."}, "mouse aortae": {"system": "mouse aortae", "assay": "Measurement of vascular contraction of aorta (aortic ring specimens)", "settings": "cumulative addition 0.001, 0.01, 0.1 and 1 μM", "experimental": "After excision of the thoracic aortae from untreated mice and removal of fat and connective tissue, the aortae were cut into rings to prepare aortic ring specimens. The ring specimens were immersed in a liquid tank filled with a normal nutrient solution (physiological saline solution containing 136.9 mM NaCl, 5.4 mM KCl, 5.5 mM glucose, 23.8 mM NaHCO3, 1.5 mM CaCl2, 1.0 mM MgCl2 and 0.01 mM EDTA), and two stainless hooks were penetrated through the lumens of the ring specimens. One end of each of the stainless hooks was fixed, and the other end thereof was connected to a force-displacement transducer (T7-30-240, manufactured by Orientec Co., Ltd.) connected to a strain amplifier (3134 strain AMPL, manufactured by Yokogawa Test & Measurement Corporation). Then, the following operation (a), (b) or (c) was performed.\n(a) Norepinephrine (manufactured by Sigma) was cumulatively added into the liquid tank containing the ring specimens after stabilization of each contraction (every about 30 minutes) so as to attain 0.001 μM, 0.01 μM, 0.1 μM and 1 μM, and this group was designated as a “norepinephrine-administered group” (n=4) (FIG. 3A). 5,6-DiHETE was cumulatively added into the liquid tank containing the ring specimen after stabilization of each contraction (every about 30 minutes) so as to attain 0.001 μM, 0.01 μM, 0.1 μM and 1 μM, and this group was designated as a “5,6-DiHETE-administered group” (n=4) (FIG. 3A).\n(b) Norepinephrine was added into the liquid tank containing the ring specimens so as to attain 0.3 μM, and precontraction was induced by administration of norepinephrine (FIG. 3B). Then, after the contraction by the administration of norepinephrine was stabilized, acetylcholine (manufactured by Sigma) was cumulatively added after stabilization of each relaxation reaction (every about 15 minutes) so as to attain 0.03 μM, 0.1 μM, 0.3 μM and 1 μM, and this group was designated as an “acetylcholine-administered group” (FIG. 3B). After the contraction by the administration of norepinephrine was stabilized, 5,6-DiHETE was cumulatively added every about 15 minutes so as to attain 0.001 μM, 0.01 μM, 0.1 μM and 1 μM, and this group was designated as a “5,6-DiHETE-administered group” (n=4) (FIG. 3B).\n(c) In order to verify the effect of 5,6-DiHETE on the acetylcholine administration, norepinephrine was added into the liquid tank containing the ring specimens so as to attain 1 μM. After the contraction by the administration of norepinephrine was stabilized, 5,6-DiHETE or a vehicle (solvent alone) was added so as to attain 1 μM. […]\nIn the above operations (a) to (c), tension (contractile force) generated in the aortic ring specimens was measured isometrically over time using the above force-displacement transducer under a resting tension of 3 mN, and recorded."}},
  "data": [
    {"molecule": "CC/C=C\\C/C=C\\C/C=C\\C/C=C\\C=C\\C(O)C/C=C\\CCC(=O)O", "note": "(stereo not drawn) [7-HDoHE]", "values": [
      {"measurement": "effect on histamine-induced dye extravasation", "setting": "[1]; pretreatment 0.1 μg/ear", "value": "did not affect histamine-induced dye extravasation"}
    ]},
    {"molecule": "CC/C=C\\CC(O)/C=C/C=C\\CCCCCCCC(=O)O", "note": "(stereo not drawn) [13-HOTrE]", "values": [
      {"measurement": "effect on histamine-induced dye extravasation", "setting": "[1]; pretreatment 0.1 μg/ear", "value": "did not affect histamine-induced dye extravasation"}
    ]},
    {"molecule": "Cc1c(C(=O)Nc2cccc(C(F)(F)F)c2)cc(-c2ccccc2)n1CCCN1CCOCC1", "note": "[HC-067047, reference compound]", "values": [
      {"measurement": "recovery from colitis as compared with the colitis group", "setting": "[2]", "value": "promoted in recovery from colitis"},
      {"measurement": "colon edema, wet/dry weight ratio", "setting": "[3]", "value": "5.0±0.1"},
      {"measurement": "histologic score of colitis", "setting": "[3]", "value": "2.8±0.4"}
    ]},
    {"molecule": "COC(=O)[C@@H](N)CCCNC(=N)N[N+](=O)[O-]", "note": "[L-NAME]", "values": [
      {"measurement": "blood pressure", "setting": "anaphylaxis model mice", "value": "106.6±8.8", "unit": "mmHg"},
      {"measurement": "body temperature decrease", "setting": "anaphylaxis model mice", "value": "−0.8±0.2", "unit": "°C"}
    ]},
    {"molecule": "[Cl][La]([Cl])[Cl]", "note": "[LaCl3]", "values": [
      {"measurement": "effect on histamine-induced dye extravasation", "setting": "[1]; pretreatment 250 μg/ear", "value": "significantly inhibited dye extravasation"}
    ]},
    {"molecule": "CN(C)CCOC(c1ccccc1)c1ccccc1", "note": "[diphenhydramine, reference compound]", "values": [
      {"measurement": "histamine-induced reduction of TER", "setting": "HUVECs; 10 μM pretreatment before histamine 10 μM", "value": "abrogated"},
      {"measurement": "histamine-induced NO production", "setting": "NO production in HUVECs", "value": "abrogated"}
    ]},
    {"molecule": "NC[C@H](O)c1ccc(O)c(O)c1", "note": "[norepinephrine, reference compound]", "values": [
      {"measurement": "contraction of aorta", "setting": "mouse aortae", "value": "contracted in a concentration-dependent manner"}
    ]},
    {"molecule": "thrombin", "values": [
      {"measurement": "change of TER", "setting": "HUVECs; 1 U/mL, alone", "value": "significantly lowered the TER"}
    ]}
  ]
}
